Counter-ions that a name gives are not always drawn.
Target: T1, HCV polymerase (Hepatitis C virus genotype 1b, UniProt P26663)
T1 construct: a region encoding NS5B (591 amino acids; J Virol 1991 Mar, 65(3), 1105-13) was amplified by PCR; 6 His (N); made in house; host or cells: Escherichia coli
Assay: biochemical
Details: read-out: HCV polymerase inhibitory activity IC50

T1 sequence (P26663 2420-3010): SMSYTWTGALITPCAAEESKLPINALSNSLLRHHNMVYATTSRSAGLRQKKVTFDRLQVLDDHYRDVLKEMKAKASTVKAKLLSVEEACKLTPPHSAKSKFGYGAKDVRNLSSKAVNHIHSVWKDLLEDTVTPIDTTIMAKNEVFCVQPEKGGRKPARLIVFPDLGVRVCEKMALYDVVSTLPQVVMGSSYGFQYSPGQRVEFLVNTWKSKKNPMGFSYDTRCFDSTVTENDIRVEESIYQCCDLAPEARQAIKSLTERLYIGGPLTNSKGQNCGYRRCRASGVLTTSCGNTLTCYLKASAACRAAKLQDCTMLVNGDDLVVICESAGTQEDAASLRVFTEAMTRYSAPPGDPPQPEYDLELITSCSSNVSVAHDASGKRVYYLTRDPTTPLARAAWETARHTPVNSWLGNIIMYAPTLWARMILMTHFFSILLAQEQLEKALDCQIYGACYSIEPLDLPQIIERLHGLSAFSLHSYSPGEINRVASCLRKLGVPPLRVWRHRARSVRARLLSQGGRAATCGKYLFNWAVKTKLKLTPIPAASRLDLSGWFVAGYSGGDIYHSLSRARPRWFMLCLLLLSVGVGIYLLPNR

| Compound | IC50 [nM] |
| --- | --- |
| N/C(=N\O)c1ccc(-c2ccc(Cl)cc2)c(COc2ccc(-c3nc4cc(C(=O)O)ccc4n3C3CCCCC3)c(F)c2)c1 [Example 373, 2-{4-[2-(4-chlorophenyl)-5-(N-hydroxyamidino)benzyloxy]-2-fluorophenyl}-1-cyclohexylbenzimidazole-5-carboxylic acid dihydrochloride] | 13 |
| O=C(O)c1ccc2c(c1)cc(-c1ccc(OCc3ccccc3)cc1)n2C1CCCC1 [Example 503, 2-(4-benzyloxyphenyl)-1-cyclopentyl-1H-indole-5-carboxylic acid] | 196 |
| O=C(O)c1ccc2c(c1)nc(-c1ccc(N(Cc3ccccc3)Cc3ccccc3)cc1)n2C1CCCCC1 [Example 87, 1-cyclohexyl-2-[4-(dibenzylamino)phenyl]benzimidazole-5-carboxylic acid] | 800 |
| O=C(O)c1ccc2c(c1)nc(-c1ccc(OC(c3ccc(F)cc3)c3cccc(C(=O)N4CCC(O)CC4)c3)cc1F)n2C1CCCCC1 (stereo not shown) [Example 443, 2-{4-[{3-(4-hydroxypiperidyl-1-ylcarbonyl)phenyl}(4-fluorophenyl)methoxy]-2-fluorophenyl}-1-cyclohexylbenzimidazole-5-carboxylic acid hydrochloride] | 30 |
| COC(=O)c1ccc2c(c1)nc(-c1ccc(OCc3cc(C(=O)N(C)C)ccc3-c3ccc(Cl)cc3)cc1F)n2C1CCCCC1 [Example 303, methyl 2-{4-[2-(4-chlorophenyl)-5-(dimethylcarbamoyl)benzyloxy]-2-fluorophenyl}-1-cyclohexylbenzimidazole-5-carboxylate] | 100 |
| O=C(O)c1ccc2c(c1)nc(-c1ccc(OCc3ncccc3-c3ccc(Cl)cc3)cc1)n2C1CCCCC1 [Example 235, 2-{4-[{3-(4-chlorophenyl)-2-pyridyl}methoxy]phenyl}-1-cyclohexylbenzimidazole-5-carboxylic acid] | 36 |
| COc1ccc(-c2ccc(Cl)cc2)c(COc2ccc(-c3nc4cc(C(=O)O)ccc4n3C3CCSCC3)cc2)c1 [Example 264, 2-{4-[2-(4-chlorophenyl)-5-methoxybenzyloxy]phenyl}-1-(4-tetrahydrothiopyranyl)benzimidazole-5-carboxylic acid] | < 10 |
| CC(C)N(C)C(=O)c1ccc(-c2ccc(Cl)cc2)c(COc2ccc(-c3nc4cc(C(=O)O)ccc4n3C3CCCCC3)c(F)c2)c1 [Example 386, 2-{4-[2-(4-chlorophenyl)-5-(N-isopropyl-N-methylcarbamoyl)-benzyloxy]-2-fluorophenyl}-1-cyclohexylbenzimidazole-5-carboxylic acid hydrochloride] | 18 |
| O=C(O)c1ccc2c(c1)nc(-c1ccc(OCc3cc([N+](=O)[O-])ccc3-c3ccc(Cl)cc3)cc1)n2C1CCCCC1 [Example 182, 2-{4-[2-(4-chlorophenyl)-5-nitrobenzyloxy]phenyl}-1-cyclohexylbenzimidazole-5-carboxylic acid] | 21 |
| O=C(O)c1ccc2c(c1)nc(-c1ccc(OCc3ccccc3-c3ccc(C(F)(F)F)cc3)cc1F)n2C1CCCCC1 [Example 131, 1-cyclohexyl-2-{2-fluoro-4-[2-(4-trifluoromethylphenyl)-benzyloxy]phenyl}benzimidazole-5-carboxylic acid] | 46 |
| CC(C)(CO)NC(=O)c1ccc(-c2ccc(Cl)cc2)c(COc2ccc(-c3nc4cc(C(=O)O)ccc4n3C3CCCCC3)cc2)c1 [Example 352, 2-{4-[2-(4-chlorophenyl)-5-{(1-hydroxy-2-methylpropan-2-yl)carbamoyl}benzyloxy]phenyl}-1-cyclohexylbenzimidazole-5-carboxylic acid hydrochloride] | 13 |
| O=C(O)c1ccc2c(c1)nc(-c1ccc(OC[C@@H]3CCCN3C(=O)OCc3ccccc3)cc1)n2C1CCCCC1 [Example 185, 2-{4-[{(2S)-1-benzyloxycarbonyl-2-pyrrolidinyl}methoxy]phenyl}-1-cyclohexylbenzimidazole-5-carboxylic acid] | 110 |
| CC(C)NC(=O)c1ccc(-c2ccc(F)c(Cl)c2)c(COc2ccc(-c3nc4cc(C(=O)O)ccc4n3C3CCCCC3)c(F)c2)c1 [Example 399, 2-{4-[2-(3-chloro-4-fluorophenyl)-5-(isopropylcarbamoyl)-benzyloxy]-2-fluorophenyl}-1-cyclohexylbenzimidazole-5-carboxylic acid hydrochloride] | 32 |
| O=C(O)c1ccc2c(c1)nc(-c1ccc(OC3CCCN(Cc4ccc(Cl)cc4)C3)cc1)n2C1CCCCC1 (stereo not shown) [Example 219, 2-{4-[1-(4-chlorobenzyl)-3-piperidyloxy]phenyl}-1-cyclohexylbenzimidazole-5-carboxylic acid] | 130 |
| CN(C)C(=O)COc1cccc(Oc2ccc(-c3nc4cc(C(=O)O)ccc4n3C3CCCCC3)cc2)c1 [Example 196, 1-cyclohexyl-2-{4-[3-(dimethylcarbamoylmethoxy)phenoxy]phenyl}benzimidazole-5-carboxylic acid] | 200 |
| CN1CCN(C(=O)c2ccc(-c3ccc(Cl)cc3)c(COc3ccc(-c4nc5cc(C(=O)O)ccc5n4C4CCCCC4)cc3)c2)CC1 [Example 321, 2-{4-[2-(4-chlorophenyl)-5-(4-methylpiperazin-1-ylcarbonyl)benzyloxy]phenyl}-1-cyclohexylbenzimidazole-5-carboxylic acid dihydrochloride] | 15 |

| Compound | IC50 [nM] |
| --- | --- |
| CC(C)NC(=O)c1ccc(-c2ccc(Cl)cc2)c(COc2ccc(-c3nc4cc(-c5noc(=O)[nH]5)ccc4n3C3CCCCC3)c(F)c2)c1 [Example 436, 2-{4-[2-(4-chlorophenyl)-5-(isopropylcarbamoyl)benzyloxy]-2-fluorophenyl}-1-cyclohexyl-5-(2,5-dihydro-5-oxo-4H-1,2,4-oxadiazol-3-yl)benzimidazole hydrochloride] | 26 |
| O=C(O)c1ccc2c(c1)nc(-c1ccc(OC[C@@H]3CCCN3c3ccc([N+](=O)[O-])cc3)cc1)n2C1CCCCC1 [Example 203, 1-cyclohexyl-2-{4-[{(2S)-1-(4-nitrophenyl)-2-pyrrolidinyl}-methoxy]phenyl}benzimidazole-5-carboxylic acid] | 63 |
| CN(C)C(=O)c1ccc(-c2ccc(Cl)s2)c(COc2ccc(-c3nc4cc(C(=O)O)ccc4n3C3CCCCC3)cc2)c1 [Example 362, 2-{4-[2-(5-chlorothiophen-2-yl)-5-(dimethylcarbamoyl)benzyloxy]-phenyl}-1-cyclohexylbenzimidazole-5-carboxylic acid hydrochloride] | 20 |
| CS(=O)(=O)c1ccc(-c2ccc(Cl)cc2COc2ccc(-c3nc4cc(C(=O)O)ccc4n3C3CCCCC3)cc2)cc1 [Example 167, 2-{4-[3-chloro-6-(4-methanesulfonylphenyl)benzyloxy]phenyl}-1-cyclohexylbenzimidazole-5-carboxylic acid] | 33 |
| O=C(O)c1ccc2c(c1)nc(-c1ccc(Oc3cccc(OCc4cccnc4)c3)cc1)n2C1CCCCC1 [Example 178, 1-cyclohexyl-2-{4-[3-(3-pyridylmethoxy)phenoxy]phenyl}-benzimidazole-5-carboxylic acid] | 52 |
| O=C(O)c1ccc2c(c1)nc(-c1ccc(OCc3cc(C(=O)N4CCOCC4)ccc3-c3ccc(Cl)cc3)cc1F)n2C1CCCCC1 [Example 290, 2-{4-[2-(4-chlorophenyl)-5-morpholinocarbonylbenzyloxy]-2-fluorophenyl}-1-cyclohexylbenzimidazole-5-carboxylic acid] | 12 |
| O=C(O)c1ccc2c(c1)nc(-c1ccc(OCCc3ccccc3)cc1)n2C1CCCC1 [Example 71, 1-cyclopentyl-2-(4-phenethyloxyphenyl)benzimidazole-5-carboxylic acid] | 620 |
| O=C(O)c1ccc2c(c1)nc(-c1ccc(OCc3cccc([N+](=O)[O-])c3-c3ccc(Cl)cc3)cc1)n2C1CCCCC1 [Example 208, 1-cyclohexyl-2-{4-[2-(4-chlorophenyl)-3-nitrobenzyloxy]phenyl}-benzimidazole-5-carboxylic acid] | 39 |
| O=C(O)c1ccc2c(c1)nc(-c1ccc(Oc3cccc(OCc4ccccc4)c3)cc1)n2C1CCCCC1 [Example 105, 2-[4-(3-benzyloxyphenoxy)phenyl]-1-cyclohexylbenzimidazole-5-carboxylic acid] | 76 |
| CS(=O)(=O)c1ccc(-c2ccc(Cl)cc2)c(COc2ccc(-c3nc4cc(C(=O)O)ccc4n3C3CCCCC3)cc2)c1 [Example 280, 2-{4-[2-(4-chlorophenyl)-5-methanesulfonylbenzyloxy]phenyl}-1-cyclohexylbenzimidazole-5-carboxylic acid] | 16 |
| O=C(O)c1ccc2c(c1)nc(-c1ccc(Oc3cccc(OCc4ccc(Cl)cc4)c3)cc1)n2C1CCCCC1 [Example 201, 2-{4-[3-(4-chlorobenzyloxy)phenoxy]phenyl}-1-cyclohexylbenzimidazole-5-carboxylic acid] | 140 |
| CN(C)C(=O)c1ccc(-c2cccnc2)c(COc2ccc(-c3nc4cc(C(=O)O)ccc4n3C3CCCCC3)cc2)c1 [Example 272, 2-{4-[3-dimethylcarbamoyl-6-(3-pyridyl)benzyloxy]phenyl}-1-cyclohexylbenzimidazole-5-carboxylic acid dihydrochloride] | 66 |
| O=C(O)c1ccc2c(c1)nc(-c1ccc(OCc3cc(-c4noc(=O)[nH]4)ccc3-c3ccc(Cl)cc3)cc1F)n2C1CCCCC1 [Example 374, 2-{4-[2-(4-chlorophenyl)-5-(2,5-dihydro-5-oxo-4H-1,2,4-oxadiazol-3-yl)benzyloxy]-2-fluorophenyl}-1-cyclohexylbenzimidazole-5-carboxylic acid hydrochloride] | 13 |
| O=C(O)c1ccc2c(c1)nc(-c1ccc(Oc3cc(OCc4ccncc4)ncn3)cc1)n2C1CCCCC1 [Example 239, 1-cyclohexyl-2-{4-[4-(4-pyridylmethoxy)-6-pyrimidinyloxy]phenyl}-benzimidazole-5-carboxylic acid] | 170 |
| COc1ccc(COc2ccc(-c3nc4cc(C(=O)O)ccc4n3C3CCCC3)cc2)cc1 [Example 48, 1-cyclopentyl-2-[4-(4-methoxybenzyloxy)phenyl]benzimidazole-5-carboxylic acid] | 440 |

Source: patent US20040082635A1, “Fused cyclic compounds and medicinal use thereof” (priority 2001, published 2004)
